# According to patent US20090076130A1, “COMPOUNDS FOR THE INHIBITION OF HISTONE DEACETYLASE” (NATUREWISE BIOTECH & MEDICALS CORPORATION, priority 2007, published 2009):
# How the values were obtained:
# [1] = test system: acetylated histone H4; test: Western blotting of hyperacetylated histone H4 in C6 glioma cells; assay type: cell-based, rat
# Procedure: Accumulation of hyperacetylated histone H4 was analyzed in the cell lysates by using Western Blotting and the antibody directed against acetylated histone H4 (Upstate). The C6 glioma cells were seeded at a density of 1×10^6 per 10 cm culture dish. After 24 hours, the cells were treated with 10 μg/mL of NBM-HD-1 or 4 mM sodium butyrate for several hours. The whole-cell lysates were prepared by using denaturing SDS sample buffer and then separated on 15% SDS-polyacrylamide gels. […] The amount of acetylated histones was hardly detectable in untreated C6 glioma cells. The amount of acetylated histone H4 of the cells treated with 4 mM sodium butyrate for 2 hours increased. Sodium butyrate was then removed from the culture medium. After 6 hours, the amount of acetylated histone H4 decreased. The accumulation of acetylated histone H4 increased in the cells treated with NBM-HD-1 for 2 hours. […] The highest histone acetylation appeared at 6 hours after the compound had been removed. […] Because NBM-HD-1 is more hydrophobic than sodium butyrate, NBM-HD-1 can be retained in the cells longer than sodium butyrate and continuously induce the acetylation of histone H4.
# [2] = test system: human giloblastoma DBTRG-05MG cancer cells; test: Growth and morphology of human giloblastoma DBTRG-05MG cancer cells; assay type: cell-based; settings: 72 hours
# Procedure: The human giloblastoma DBTRG-05MG cancer cells were cultured in RPMI medium 1640 (Gibco) supplemented with penicillin G, streptomycin sulphate, 0.5 mM of L-glutamine and 10% fetal bovine serum (FBS; Gibco), 100 mh/L sodium pyruvate (Gibco), and 1% NEAA (Gibco) at 37° C., 5% CO2 and 95% relative humidity. For these experiments, the cells were seeded at a density of 3×10^5 per well of 6-well plates. After 24 hours, the cells were treated with different concentrations of NBM-HD-1 and 4 mM sodium butyrate. The cells were observed and counted after 72 hours. […] In 05MG cells (FIG. 7(A)), after incubation with 2.5 μg/mL (FIG. 7(A)-b), 5 μg/mL (FIG. 7(A)-c) and 10 μg/mL (FIG. 7(A)-d) of NBM-HD-1 for 72 hours, the density of the cells reduced dramatically in comparison with that of the control group (FIG. 7(A)-a). The 05MG cells in the experimental group also changed to become longer than those in the control group.
# [3] = test system: rat C6 glioma cells; test: Growth of rat C6 glioma cells (observation and cell counting); assay type: cell-based; settings: 2.5, 5 and 10 μg/mL, 48 hours, cell density and cell counting vs control
# Procedure: The cancer cell line, rat C6 glioma cells, was cultured in Dulbecco's modified Eagle's medium (DMEM; Gibco) supplemented with penicillin G, streptomycin sulphate, 0.5 mM of L-glutamine and 10% fetal bovine serum (FBS; Gibco) at 37° C., 5% CO2 and 95% relative humidity. For all experiments, the cells were seeded at a density of 3×10^5 per well in 6-well plates. After 24 hours, the cells were treated with different concentrations of the compound NBM-HD-1 (i.e., the compound of formula III depicted herein). After 48 hours, the cells were observed and counted. According to the results shown in FIG. 1, NBM-HD-1 can arrest the growth of rat C6 glioma cells. After the C6 glioma cells were incubated with 2.5 μg/mL (see FIG. 1(A)-b), 5 μg/mL (see FIG. 1(A)-c) and 10 μg/mL (see FIG. 1(A)-d) of NBM-HD-1 for 48 hours, the density of the cells reduced dramatically in comparison with that of control (see FIG. 1(A)-a).
# [4] = test system: cyclinD1, cyclinB1, p21; test: RT-PCR of cell cycle regulator genes in C6 glioma cells; assay type: cell-based, rat; settings: GAPDH internal control
# Procedure: For the rat C6 glioma cells, the cell cycle related to mRNA expression was examined by RT-PCR. The total RNAs were isolated from the treated C6 cells by using the RNeasy Mini Kit (Qiagen) according to the manufacturer's instructions. The cDNAs were produced from 500 ng of total RNAs using ReverTra-Plus-™ (TOYOBO). The RT product (1 μl) was amplified by PCR with primers to analyze several genes of cell cycle by using GAPDH as an internal control. According to the results of FIG. 3, NBM-HD-1 can modulate the expression of some cell cycle regulators. […] On the contrary, the expression of p21 was increased.
# [5] = test system: MCF-7 cancer cells; test: Cell cycle / DNA of MCF-7 cells by FACScan cytometry; assay type: cell-based, human; settings: 72 hours
# Procedure: 1×10^6 of rat C6 glioma cells were treated with various concentrations of NBM-HD-1 (0 μg/mL, 2.5 μg/mL, 5 μg/mL, and 10 μg/mL) for 72 hours. The treated cells were trysinized and collected. The cells were resuspended in 200 μL PBS and then fixed by adding 800 μL of cold 100% ethanol. The resulting cells were fixed overnight at −20°. The cell pellets were collected by centrifugation, resuspended in 1 mL of hypotonic buffer (0.5% Triton X-100 in PBS and 1 μg/mL RNase A), and incubated at 37° for 30 minutes. Then, 1 mL of PI solution (50 μg/mL) was added to the resulting cell pellets. The mixture was allowed to stand at 4° for 30 min. The DNA amounts of the cells were analyzed by FACScan Cytometry (Becton Dickinson) (see FIG. 2).
# MCF-7 cancer cells (1×10^6) in a 100-mm dish were treated with various concentrations of NBM-HD-1 (0, 2.5, 5, and 10 μg/mL) or 4 mM sodium butyrate for 72 hours. The samples were prepared following the steps mentioned in [0063]. The DNA of the cells was then analyzed by FACScan cytometry (Becton Dickinson). […] The percentage of G0/G1 phase increased from 74.46 to 92.55 in a dose-dependent manner.
# [6] = test system: HDAC; test: HDAC Activity Assay Kit on nuclear extracts of treated C6 glioma cells; assay type: cell-based, rat; settings: nuclear protein of C6 cells treated 24 hours, fluorometric substrate
# Procedure: The C6 glioma cells were treated with different doses of NBM-HD-1 and sodium butyrate (SB). After 24 hours, the cells were harvested to extract the nuclear proteins by NucBuster™ Protein Extraction Kit (Novagen) as described by the manufacturer's instructions. These extracts were then used in HDAC Activity Assay Kit (Calbiochem) to analyze their HDAC (histone deacetylase) inhibition activities. The HDAC fluorometric substrate, which comprises an acetylated lysine side chain, was incubated with extracted nuclear protein first. Deacetylation of the substrate sensitized the substrate, so that, in the second step, treatment with the Lysine Developer produced a fluorophore. The fluorophore can easily be analyzed by using a fluorescence plate reader. […] Inhibition of HDAC has been implicated in the induction of differentiation in cancer cells. In this experiment, a well-known compound for HDAC inhibition, sodium butyrate, was used as a positive control.
smiles,measurement,setting,value
COc1cc2c(c(OC)c1CCC(C)(C)O)C(=O)C[C@@H](c1ccc(OC)c(OC)c1C/C=C(\C)CCCC(C)(C)O)O2 [NBM-HD-1],accumulation of hyperacetylated histone H4,"[1]; 10 μg/mL NBM-HD-1 or 4 mM sodium butyrate, 2 hours",can increase the accumulation of hyperacetylated histone H4
same,time of highest histone acetylation after removal of the compound,"[1]; 10 μg/mL, 2 hours treatment",6 h
same,amount of acetylated histone H4 after removal of the compound,"[1]; after 2 hours treatment and removal from the culture medium, up to 6 hours",increased over time
same,morphology of 05MG cancer cells,"[2]; 2.5, 5, 10 μg/mL",change the morphology of 05MG cancer cells
same,growth of 05MG cancer cells,"[2]; NBM-HD-1 2.5, 5, 10 μg/mL or 4 mM sodium butyrate",can inhibit the growth of 05MG cells in a dose-dependent manner
same,growth of C6 glioma cells,[3],can inhibit the growth of C6 glioma cells in a dose-dependent manner
same,expression of cyclinD1 and cyclinB1,[4],decrease the expression of cyclinD1 and cyclinB1 in a dose-dependent manner
same,expression of p21,[4],increased
same,cell cycle of MCF-7 cells,"[5]; 0, 2.5, 5, 10 μg/mL",arrested on the G0/G1 phase in a dose-dependent manner
same,S and G2/M phases of the cells,"[5]; MCF-7, 0, 2.5, 5, 10 μg/mL",significantly decreased both S and G2/M phases of the cells in a dose-dependent manner
same,HDAC activity,[6],significantly inhibits HDAC activity
